Measurements as given in ChEMBL document CHEMBL5137093, “Improving Drug Delivery While Tailoring Prodrug Activation to Modulate Cmax and Cmin by Optimization of (Carbonyl)oxyalkyl Linker-Based Prodrugs of Atazanavir” (J Med Chem, 2022).
In brackets after ≈: the same amount, converted by molar mass.

Tests used:
[1] = Ratio of Cmax/Cmin of Atazanavir in Sprague-Dawley rat at 3 ml/kg,po measured after 24 hrs by UPLC-MS/MS analysis; type: ADME; settings: in vivo
[2] = Cmax in Sprague-Dawley rat at 3 ml/kg,po measured upto 24 hrs by UPLC-MS/MS analysis; type: ADME; set-up: dose 3 ml/kg, time < 24 hrs, route po; settings: in vivo
[3] = Fold ratio of total AUC of Atazanavir in Sprague-Dawley rat at 3 ml/kg,po measured upto 24 hrs by UPLC-MS/MS analysis; type: ADME; settings: in vivo
[4] = Aqueous solubility of compound at pH 4 by UPLC analysis; type: physicochemical
[5] = Aqueous stability of the compound in phosphate buffer at pH 6.5 assessed as compound half life measured after 24 hrs by UPLC analysis; type: physicochemical; settings: for t1/2: buffer, pH 6.5, 24 h, 24 h; for half-life: phosphate buffer, pH 6.5
[6] = Tmax in Sprague-Dawley rat at 3 ml/kg,po measured upto 24 hrs by UPLC-MS/MS analysis; type: ADME; settings: in vivo
[7] = Aqueous stability of the compound in HCL at pH 1 assessed as compound half life measured after 24 hrs by UPLC analysis; type: physicochemical; settings: for half-life: aqueous HCl, pH 1
[8] = Relative AUC ratio of Atazanavir in Sprague-Dawley rat at 3 ml/kg,po measured upto 24 hrs by UPLC-MS/MS analysis; type: ADME; settings: in vivo
[9] = AUClast in Sprague-Dawley rat at 3 ml/kg,po measured upto 24 hrs by UPLC-MS/MS analysis; type: ADME; set-up: time < 24 hrs, dose 3 ml/kg, route po; settings: in vivo; for AUClast: 24 h
[10] = Relative Cmax ratio of Atazanavir in Sprague-Dawley rat at 3 ml/kg,po measured upto 24 hrs by UPLC-MS/MS analysis; type: ADME; settings: in vivo
[11] = Ratio of AUC of Atazanavir in Sprague-Dawley rat at 3 ml/kg,po measured upto 24 hrs by UPLC-MS/MS analysis; type: ADME; settings: in vivo
[12] = Aqueous solubility of compound at pH 1 by UPLC analysis; type: physicochemical
[13] = Aqueous solubility of compound at pH 6.5 by UPLC analysis; type: physicochemical
[14] = Aqueous stability of the compound in acetate buffer at pH 4 assessed as compound half life measured after 24 hrs by UPLC analysis; type: physicochemical; settings: for half-life: acetate buffer, pH 4; for t1/2: buffer, pH 4, 24 h, 24 h
[15] = Ratio of Cmax/Cmin of Atazanavir in Sprague-Dawley rat at 30 ml/kg,po measured after 24 hrs by UPLC-MS/MS analysis; type: ADME; settings: in vivo
[16] = Relative AUC ratio of Atazanavir in Sprague-Dawley rat at 30 ml/kg,po measured upto 24 hrs by UPLC-MS/MS analysis; type: ADME; settings: in vivo
[17] = Fold ratio of total AUC of Atazanavir in Sprague-Dawley rat at 30 ml/kg,po measured upto 24 hrs by UPLC-MS/MS analysis; type: ADME; settings: in vivo
[18] = Cmax in Sprague-Dawley rat at 30 ml/kg,po measured upto 24 hrs by UPLC-MS/MS analysis; type: ADME; set-up: time < 24 hrs, dose 30 ml/kg, route po; settings: in vivo
[19] = AUClast in Sprague-Dawley rat at 30 ml/kg,po measured upto 24 hrs by UPLC-MS/MS analysis; type: ADME; set-up: time < 24 hrs, dose 30 ml/kg, route po; settings: in vivo
[20] = Relative Cmax ratio of Atazanavir in Sprague-Dawley rat at 30 ml/kg,po measured upto 24 hrs by UPLC-MS/MS analysis; type: ADME; settings: in vivo
[21] = Ratio of AUC of Atazanavir in Sprague-Dawley rat at 30 ml/kg,po measured upto 24 hrs by UPLC-MS/MS analysis; type: ADME; settings: in vivo
[22] = Tmax in Sprague-Dawley rat at 30 ml/kg,po measured upto 24 hrs by UPLC-MS/MS analysis; type: ADME; settings: in vivo
[23] = aqueous medium, read-out: solubility

SMILES	Ratio [1]	Cmax ([2]; 24 h)	Ratio [3]	solubility [4, 23]	t1/2 [5]	Tmax ([6]; Sprague-Dawley, read-out: Tmax)	half-life [7]	Ratio [8]	AUClast [9]	Ratio [10]	Ratio [11]	solubility [12, 23]	half-life [14]	half-life [5]	solubility ([13]; buffer)	solubility ([4]; buffer)	solubility ([12]; buffer)	also measured
COC(=O)N[C@H](C(=O)N[C@@H](Cc1ccccc1)[C@H](CN(Cc1ccc(-c2ccccn2)cc1)NC(=O)[C@@H](NC(=O)OC)C(C)(C)C)OC(=O)OC(OC(=O)[C@@H](N)C(C)C)C(C)(C)C)C(C)(C)C (mixture of isomers)	235.5	670 nM	13.2	> 870 µg/mL	65.4 h	0.4 h	> 500 h	10.4	1.057 µM·h	5.8	0.26	> 800 µg/mL	> 500 h	–	–	–	–	solubility [13, 23]: < 1 µg/mL
COC(=O)N[C@H](C(=O)N[C@@H](Cc1ccccc1)[C@H](CN(Cc1ccc(-c2ccccn2)cc1)NC(=O)[C@@H](NC(=O)OC)C(C)(C)C)OC(=O)OC(OC(=O)[C@@H](N)Cc1ccccc1)C(C)C)C(C)(C)C (stereo in doubt; 3v)	–	–	0.3	> 840 µg/mL	–	–	334 h	0.3	–	0.5	0	> 1520 µg/mL	100 h	10.7 h	< 1 µg/mL	–	–	–
COC(=O)N[C@H](C(=O)N[C@@H](Cc1ccccc1)[C@H](CN(Cc1ccc(-c2ccccn2)cc1)NC(=O)[C@@H](NC(=O)OC)C(C)(C)C)OC(=O)OC(OC(=O)[C@@H](N)Cc1ccccc1)C(C)C)C(C)(C)C (stereo in doubt; 3w)	–	–	3.8	–	12.7 h	0.3 h	–	3.7	–	7.8	0.01	–	–	–	> 890 µg/mL	> 1630 µg/mL	> 1670 µg/mL	Cmax ([2]; Sprague-Dawley, 3 ml/kg): 50 nM; t1/2 ([7]; buffer, pH 1, 24 h): 334.3 h; AUC(0-t) at 24 h ([9]; Sprague-Dawley, 3 ml/kg): 0.018 µM·h; t1/2 [14]: 158.4 h
COC(=O)N[C@H](C(=O)N[C@@H](Cc1ccccc1)[C@H](CN(Cc1ccc(-c2ccccn2)cc1)NC(=O)[C@@H](NC(=O)OC)C(C)(C)C)OC(=O)OC(OC(=O)C1(N)CC1)C(C)C)C(C)(C)C (stereo in doubt; 3x)	–	–	5.1	–	–	0.3 h	> 500 h	1.7	1.313 µM·h	1.4	2.07	> 1200 µg/mL	> 500 h	> 500 h	< 1.5 µg/mL	> 950 µg/mL	–	Cmax ([2]; Sprague-Dawley, 3 ml/kg): 1260 nM
COC(=O)N[C@H](C(=O)N[C@@H](Cc1ccccc1)[C@H](CN(Cc1ccc(-c2ccccn2)cc1)NC(=O)[C@@H](NC(=O)OC)C(C)(C)C)OC(=O)OC(OC(=O)C1(N)CC1)C(C)C)C(C)(C)C (stereo in doubt; 3y)	31.8	835 nM	22.2	–	–	–	–	9.5	4.874 µM·h	2.1	1.34	–	–	–	28 µg/mL (≈ 31 µM)	> 2100 µg/mL	> 1800 µg/mL	Tmax ([6]; po, 24 h): 0.4 h
COC(=O)N[C@H](C(=O)N[C@@H](Cc1ccccc1)[C@H](CN(Cc1ccc(-c2ccccn2)cc1)NC(=O)[C@@H](NC(=O)OC)C(C)(C)C)OC(=O)OC(OC(=O)[C@@H](N)C(C)C)C1CCCCC1)C(C)(C)C (stereo in doubt; 4n)	–	991 nM	5.3	> 1400 µg/mL	27.4 h	0.5 h	> 500 h	1.5	1.454 µM·h	1.3	2.47	> 1300 µg/mL	334 h	–	–	–	–	solubility [13, 23]: < 1 µg/mL
COC(=O)N[C@H](C(=O)N[C@@H](Cc1ccccc1)[C@H](CN(Cc1ccc(-c2ccccn2)cc1)NC(=O)[C@@H](NC(=O)OC)C(C)(C)C)OC(=O)OC(OC(=O)[C@H](C(C)C)N(C)C)C(C)C)C(C)(C)C (stereo in doubt; 5g)	194.1	382 nM	7	140 µg/mL (≈ 148 µM)	–	0.7 h	> 500 h	4.4	0.996 µM·h	2.1	0.59	–	> 500 h	> 500 h	–	–	> 420 µg/mL	solubility [13, 23]: < 1 µg/mL
COC(=O)N[C@H](C(=O)N[C@@H](Cc1ccccc1)[C@H](CN(Cc1ccc(-c2ccccn2)cc1)NC(=O)[C@@H](NC(=O)OC)C(C)(C)C)OC(=O)OC(OC(=O)[C@H](C(C)C)N(C)C)C(C)C)C(C)(C)C (stereo in doubt; 5h)	22.7	1880 nM	42.1	–	334.3 h	–	–	11.8	11.628 µM·h	2.7	2.57	–	–	–	–	160 µg/mL (≈ 169 µM)	> 1850 µg/mL	Ratio [15]: 10.8; Ratio [16]: 0.29; Tmax ([6]; po, 24 h): 0.5 h; Ratio [17]: 3.38; Cmax [18]: 3580 nM; AUC(0-t) at 24 h [19]: 64.6 µM·h; Ratio [20]: 0.14; Ratio [21]: 10.81; Tmax [22]: 3 h; t1/2 [14]: 376.3 h
COC(=O)N[C@H](C(=O)N[C@@H](Cc1ccccc1)[C@H](CN(Cc1ccc(-c2ccccn2)cc1)NC(=O)[C@@H](NC(=O)OC)C(C)(C)C)OC(=O)OC(OC(=O)[C@H](N)C(C)C)C(C)C)C(C)(C)C (stereo in doubt; 5i)	389.4	19 nM	5.6	> 1800 µg/mL	–	0.4 h	> 500 h	5.6	0.015 µM·h	5.3	0.01	> 1300 µg/mL	376 h	16.3 h	–	–	–	–
COC(=O)N[C@H](C(=O)N[C@@H](Cc1ccccc1)[C@H](CN(Cc1ccc(-c2ccccn2)cc1)NC(=O)[C@@H](NC(=O)OC)C(C)(C)C)OC(=O)OC(OC(=O)[C@@H](NC(=O)[C@@H](N)C(C)C)C(C)C)C(C)C)C(C)(C)C (stereo in doubt; 6e)	2936.7	3 nM	3.3	> 1100 µg/mL	–	0.3 h	> 500 h	3.3	0.0005 µM·h	3.3	0.0004	> 1600 µg/mL	> 500 h	167 h	76 µg/mL (≈ 74.6 µM)	–	–	–
COC(=O)N[C@H](C(=O)N[C@@H](Cc1ccccc1)[C@H](CN(Cc1ccc(-c2ccccn2)cc1)NC(=O)[C@@H](NC(=O)OC)C(C)(C)C)OC(=O)OC(OC(=O)[C@@H](NC(=O)[C@@H](N)C(C)C)C(C)C)C(C)C)C(C)(C)C (stereo in doubt; 6f)	1414	235 nM	4.2	–	94 h	–	–	3.7	0.208 µM·h	2.7	0.15	–	–	–	8 µg/mL (≈ 7.85 µM)	> 1400 µg/mL	> 1000 µg/mL	t1/2 [14]: 376.3 h
